# Legend:
# bermudagrass = assay: Test C postemergence; format: in vivo, Cynodon dactylon; conditions: for Bermudagrass plant response rating: scale 0 to 100
# Text: (§1) Seeds of plant species selected from blackgrass (Alopecurus myosuroides), ryegrass, Italian (Italian ryegrass, Lolium multiflorum), wheat (winter wheat, Triticum aestivum), galium (catchweed bedstraw, Galium aparine), corn (Zea mays), crabgrass, large (large crabgrass, Digitaria sanguinalis), foxtail, giant (giant foxtail, Setaria faberii), johnsongrass (Sorghum halepense), lambsquarters (Chenopodium album), morningglory (Ipomoea coccinea), nutsedge, yellow (yellow nutsedge, Cyperus esculentus), pigweed (redroot pigweed, Amaranthus retroflexus), ragweed (common ragweed, Ambrosia elation), soybean (Glycine max), barnyardgrass (Echinochloa crus-galli), oilseed rape (Brassica napus), waterhemp (common waterhemp, Amaranthus rudis), oat, wild (wild oat, Avena fatua), kochia (Kochia scoparia), Surinam grass (Brachiaria decumbens), foxtail, green (green foxtail, Setaria viridis), goosegrass (Eleusine indica), bromegrass, downy (downy bromegrass, Bromus tectorum), nightshade (eastern black nightshade, Solanum ptycanthum), cocklebur (common cocklebur, Xanthium strumarium), cupgrass, woolly (woolly cupgrass, Eriochloa villosa), bermudagrass (Cynodon dactylon), sunflower, (common oilseed sunflower, Helianthus annuus), Russian thistle (Salsola kali), and velvetleaf (Abutilon theophrasti) were planted into a blend of loam soil and sand and treated preemergence with test chemicals formulated in a non-phytotoxic solvent mixture which included a surfactant.
# (§2) At the same time, plants selected from these crop and weed species and also chickweed (common chickweed, Stellaria media), canarygrass (littleseed canarygrass, Phalaris minor), and deadnettle (henbit deadnettle, Lamium amplexicaule), were planted in pots containing Redi-Earth® planting medium (Scotts Company, 14111 Scottslawn Road, Marysville, Ohio 43041) comprising spaghnum peat moss, vermiculite, wetting agent and starter nutrients and treated with postemergence applications of test chemicals formulated in the same manner. Plants ranged in height from 2 to 18 cm (1- to 4-leaf stage) for postemergence treatments. Treated plants and controls were maintained in a greenhouse for 13 to 15 days, after which time all species were compared to controls and visually evaluated. Plant response ratings, summarized in Table C, are based on a scale of 0 to 100 where 0 is no effect and 100 is complete control. A dash (-) response means no test result.
# cupgrass, woolly = assay: Test C postemergence; format: in vivo, Eriochloa villosa; conditions: for Cupgrass, Woolly plant response rating: scale 0 to 100
# Text: as §1, §2
# goosegrass = assay: Test C preemergence; format: in vivo, Eleusine indica
# Text: as §1, §2
# barley = assay: Test C postemergence; format: in vivo, Hordeum vulgare; conditions: 125 g ai/ha, scale 0 to 100, 0 no effect, 100 complete control
# [1] = postemergence, 250 g ai/ha, scale 0 to 100 (0 no effect, 100 complete control)
# [2] = postemergence, 125 g ai/ha, scale 0 to 100, 0 no effect, 100 complete control
compound,measurement,setting,value
Cc1cc(C(=O)NCC(F)(F)F)nn1Cc1ccnc(C(F)(F)F)c1 [Compound 74],Bermudagrass plant response rating,"bermudagrass; Postemergence, 31 g ai/ha",5
same,Bermudagrass plant response rating,"bermudagrass; postemergence, 62 g ai/ha",5
same,"Plant response rating, Bermudagrass",bermudagrass; [1],5
same,"Plant response rating, Bermudagrass",bermudagrass; [2],5
same,"Cupgrass, Woolly plant response rating","cupgrass, woolly; Postemergence, 31 g ai/ha",5
same,"Cupgrass, Woolly plant response rating","cupgrass, woolly; postemergence, 62 g ai/ha",10
same,"Plant response rating, Cupgrass, Woolly","cupgrass, woolly; [1]",20
same,"Plant response rating, Cupgrass, Woolly","cupgrass, woolly; [2]",15
same,"Plant response rating (scale of 0 to 100), Goosegrass","goosegrass; Preemergence, 250 g ai/ha",100
same,Goosegrass plant response rating,"goosegrass; preemergence, 31 g ai/ha, scale 0 to 100 (0 no effect, 100 complete control), 13 to 15 days",75
same,"Plant response rating, Goosegrass","goosegrass; preemergence, 62 g ai/ha, 13 to 15 days, scale 0 to 100, 0 = no effect, 100 = complete control",85
same,Goosegrass plant response rating,"goosegrass; preemergence, 125 g ai/ha, scale 0 to 100, 0 is no effect, 100 is complete control",100
same,"Plant response rating, Barley",barley,0

# — patent publication US20150105252A1, “SUBSTITUTED PYRAZOLES AS HERBICIDES” (E I DU PONT DE NEMOURS AND COMPANY, priority 2013, published 2015)
